Measurements: US20150342195A1, “ANTI-MICROBIAL COMPOSITIONS, PREPARATIONS, METHODS, AND USES” (MYCO SCIENCES LIMITED, priority 2014, published 2015)
In brackets after ≈: the same amount, converted by molar mass.

Tests used:
Type in all cases: cell-based
Magnaporthe oryzae = experiment: microbe, parasite or virus in culture; conditions: PDA; for IC50: % of composition stock solution / IC50: concentration of copper or zinc in the composition, or phosphorous acid: 4 days; for IC50: concentration of copper or zinc in the composition, or phosphorous acid: Cu—Zn#12: 50% each of elemental copper and zinc
Fusarium graminearum = experiment: microbe, parasite or virus in culture; conditions: for IC50: % of composition stock solution / IC50: concentration of copper or zinc in the composition, or phosphorous acid: PDA, 3 days; for IC50: concentration of copper or zinc in the composition, or phosphorous acid: Cu—Zn#12: 50% each of elemental copper and zinc; for Potassium sorbate synergy with composition/compound: potassium sorbate and composition/compound both at their IC50 concentrations
Botrytis cinerea = experiment: Fungal growth inhibition assay (hyphal growth diameter on PDA); conditions: for IC50: % of composition stock solution / IC50: concentration of copper or zinc in the composition, or phosphorous acid: PDA, 2 days; for IC50: concentration of copper or zinc in the composition, or phosphorous acid: Cu—Zn#12: 50% each of elemental copper and zinc; for Potassium sorbate synergy with composition/compound: potassium sorbate and composition/compound both at their IC50 concentrations
Rhizoctonia solani = experiment: as above; conditions: for IC50: % of composition stock solution / IC50: concentration of copper or zinc in the composition, or phosphorous acid: PDA, 1 day; for IC50: concentration of copper or zinc in the composition, or phosphorous acid: Cu—Zn# compositions: copper plus zinc; for Potassium sorbate synergy with composition/compound: potassium sorbate and composition/compound both at their IC50 concentrations
Alternaria alternata = experiment: as above; conditions: PDA, 2 days; for IC50: concentration of copper or zinc in the composition, or phosphorous acid: Cu—Zn#12: 50% each of elemental copper and zinc
Ustilago maydis = experiment: as above; parameters: Potassium sorbate synergy with composition/compound: key to the marks not given beside the values; conditions: for IC50: % of composition stock solution / IC50: concentration of copper or zinc in the composition, or phosphorous acid: PDA, 5 days; for IC50: concentration of copper or zinc in the composition, or phosphorous acid: Cu—Zn#12: 50% each of elemental copper and zinc; for Potassium sorbate synergy with composition/compound: potassium sorbate and composition/compound both at their IC50 concentrations
Aspergillus niger = experiment: as above; conditions: for IC50: % of composition stock solution / IC50: concentration of copper or zinc in the composition, or phosphorous acid: PDA, 6 days; for IC50: concentration of copper or zinc in the composition, or phosphorous acid: Cu—Zn#12: 50% each of elemental copper and zinc; for Potassium sorbate synergy with composition/compound: potassium sorbate and composition/compound both at their IC50 concentrations
plant pathogenic fungi = experiment: organism not typed; conditions: summary of TABLE 8
Trichophyton rubrum = experiment: Fungal growth inhibition assay with Trichophyton rubrum; conditions: PDA, 33° C., 7 days; for T. rubrum IC50 values: Concentration: Cu—Zn#12: 50% each of elemental copper and zinc
Procedure: To assess the effects of compositions on fungal growth, 10 microliters of the test compositions diluted in sterile distilled water were placed in the wells of a 12-well tissue culture plate and 1 milliliter of liquid PDA was added by pipette to each well. Where multiple samples were added to each well, the 10 microliter drops were kept separate until they were mixed by the addition of hot liquid PDA and the plate was then agitated to evenly distribute the test composition(s) evenly through the agar (distilled water was used as vehicle control) and then the agar was allowed to set. For most strains (see TABLE 2), plugs of agar containing fungal hyphae (2 to 3 millimeters in diameter) from the edge of an established fungal culture were carefully cut out using a scalpel and inserted into holes cut in the centre of the agar in each well of the 12-well plate. With B. cinerea and U. maydis, mature cultures were washed with 3 ml of sterile distilled water and the spore suspensions obtained were adjusted to O.D. (at 600 nanometers) of 1.0 and 1.5, respectively. A small hole (˜1 millimeter) was made in the center of the PDA in each well with a yellow pipette tip and 1.5 microliters of spore suspension was carefully pipetted into the hole. […] To assess the effects of compositions on fungal growth in all experiments, the diameter of the hyphal growth was measured twice at a 90° angle using a ruler and the average diameter in millimeters was calculated. If no fungal growth could be detected by eye, the cultures were observed by phase microscopy (40×) to confirm that there was no growth (NG).
A clinical isolate of T. rubrum (strain 7107996; Phylum: Acomycota) was kindly provided by Dr. Richard Barton, Leeds University, UK. The growth assays with T. rubrum were as described in EXAMPLE 1, except this strain was cultured at 33° C. on PDA for 6 or 7 days when growth was assessed. T. rubrum cultures were maintained on Sabouraud dextrose agar at 33° C.
FIG. 8 is a graph depicting the effects of selected compositions and compounds on the growth of Trichophyton rubrum. The culture period was 7 days. Growth in the control cultures was 20±0 millimeters (mean±SD for 2 experiments).

[1] = system: Pseudomonas syringae (pv. tomato DC3000); experiment: Bacterial microplate culture (resazurin MIC); conditions: 24 hours at 28° C.; highest concentration 400 mg/L (1% of stock solutions)
[2] = system: Ralstonia solanacearum (strain PSS4 from tomato); experiment: microbe, parasite or virus in culture; conditions: 24 hours at 28° C.; highest concentration 400 mg/L (1% of stock solutions)
[3] = system: Xanthomonas oryzae (strain Gx0372); experiment: microbe, parasite or virus in culture; conditions: 24 hours at 28° C.; highest concentration 400 mg/L (1% of stock solutions)
[4] = system: Xanthomonas campestris (strain Race 5 from brassica); experiment: Bacterial microplate culture (resazurin MIC); conditions: 24 hours at 28° C.; highest concentration 400 mg/L (1% of stock solutions)

O=S(=O)([O-])[O-].[Cu+2] [Copper sulfate, copper sulfate]
IC50: % of composition stock solution (Magnaporthe oryzae): 0.51 % of composition stock solution
IC50: concentration of copper or zinc in the composition, or phosphorous acid (Magnaporthe oryzae): 204 µg/mL
IC50: % of composition stock solution (Magnaporthe oryzae; listed as copper sulfate): 0.51 % of composition stock solutio
IC50: % of composition stock solution (Fusarium graminearum): 0.22 % of composition stock solution
IC50: concentration of copper or zinc in the composition, or phosphorous acid (Fusarium graminearum): 88 µg/mL
IC50: % of composition stock solution (Fusarium graminearum; listed as copper sulfate): 0.22 % of composition stock solutio
IC50: % of composition stock solution (Botrytis cinerea): 0.46 % of composition stock solution
IC50: concentration of copper or zinc in the composition, or phosphorous acid (Botrytis cinerea): 184 µg/mL
Potassium sorbate synergy with composition/compound (Botrytis cinerea): ++
IC50: % of composition stock solution (Rhizoctonia solani): 0.39 % of composition stock solution
IC50: concentration of copper or zinc in the composition, or phosphorous acid (Rhizoctonia solani): 156 µg/mL
IC50: % of composition stock solution (Alternaria alternata): 0.44 % of composition stock solution
IC50: concentration of copper or zinc in the composition, or phosphorous acid (Alternaria alternata): 176 µg/mL
IC50: % of composition stock solution (Ustilago maydis): 0.43 % of composition stock solution
IC50: concentration of copper or zinc in the composition, or phosphorous acid (Ustilago maydis): 172 µg/mL
IC50: % of composition stock solution (Aspergillus niger): 0.19 % of composition stock solution
IC50: concentration of copper or zinc in the composition, or phosphorous acid (Aspergillus niger): 76 µg/mL
fungal strains (of those tested) showing strong synergy with KS (plant pathogenic fungi): 6/7
T. rubrum IC50 values: % of stock solution (Trichophyton rubrum): 0.20 % of stock solution
T. rubrum IC50 values: Concentration (Trichophyton rubrum): 80 µg/mL
MIC [1]: 100 µg/mL
MIC [2]: 50 µg/mL
MIC [3]: 50 µg/mL
MIC [4]: 50 µg/mL

OP(O)O [Phosphorous acid, phosphorous acid]
IC50: % of composition stock solution (Magnaporthe oryzae): 0.57 % of composition stock solution
IC50: concentration of copper or zinc in the composition, or phosphorous acid (Magnaporthe oryzae): 228 µg/mL
IC50: % of composition stock solution (Magnaporthe oryzae; listed as phosphorous acid): 0.57 % of composition stock solutio
IC50: % of composition stock solution (Fusarium graminearum): 0.39 % of composition stock solution
IC50: concentration of copper or zinc in the composition, or phosphorous acid (Fusarium graminearum): 156 µg/mL
IC50: % of composition stock solution (Fusarium graminearum; listed as phosphorous acid): 0.78 % of composition stock solutio
IC50: % of composition stock solution (Botrytis cinerea): 0.63 % of composition stock solution
IC50: concentration of copper or zinc in the composition, or phosphorous acid (Botrytis cinerea): 252 µg/mL
Potassium sorbate synergy with composition/compound (Botrytis cinerea): +
IC50: % of composition stock solution (Rhizoctonia solani): 0.64 % of composition stock solution
IC50: concentration of copper or zinc in the composition, or phosphorous acid (Rhizoctonia solani): 256 µg/mL
IC50: % of composition stock solution (Alternaria alternata): 0.51 % of composition stock solution
IC50: concentration of copper or zinc in the composition, or phosphorous acid (Alternaria alternata): 204 µg/mL
IC50: % of composition stock solution (Ustilago maydis): 0.75 % of composition stock solution
IC50: concentration of copper or zinc in the composition, or phosphorous acid (Ustilago maydis): 300 µg/mL
Potassium sorbate synergy with composition/compound (Ustilago maydis): ++
IC50: % of composition stock solution (Aspergillus niger): 0.19 % of composition stock solution
IC50: concentration of copper or zinc in the composition, or phosphorous acid (Aspergillus niger): 76 µg/mL
Potassium sorbate synergy with composition/compound (Aspergillus niger): +
fungal strains (of those tested) showing strong synergy with KS (plant pathogenic fungi): 4/7
T. rubrum IC50 values: % of stock solution (Trichophyton rubrum): 0.05 % of stock solution
T. rubrum IC50 values: Concentration (Trichophyton rubrum): 20 µg/mL
MIC [1]: 200 µg/mL (≈ 2.44 mM)
MIC [2]: 100 µg/mL (≈ 1.22 mM)
MIC [3]: 400 µg/mL (≈ 4.88 mM)
MIC [4]: >400 µg/mL

O=S(=O)([O-])[O-].[Zn+2] [Zinc sulfate, zinc sulfate]
IC50: % of composition stock solution (Magnaporthe oryzae): 0.48 % of composition stock solution
IC50: concentration of copper or zinc in the composition, or phosphorous acid (Magnaporthe oryzae): 192 µg/mL
IC50: % of composition stock solution (Magnaporthe oryzae; listed as zinc sulfate): 0.48 % of composition stock solutio
IC50: % of composition stock solution (Fusarium graminearum): 0.66 % of composition stock solution
IC50: concentration of copper or zinc in the composition, or phosphorous acid (Fusarium graminearum): 264 µg/mL
IC50: % of composition stock solution (Fusarium graminearum; listed as zinc sulfate): 0.66 % of composition stock solutio
Potassium sorbate synergy with composition/compound (Fusarium graminearum): +
IC50: % of composition stock solution (Botrytis cinerea): 0.52 % of composition stock solution
IC50: concentration of copper or zinc in the composition, or phosphorous acid (Botrytis cinerea): 208 µg/mL
Potassium sorbate synergy with composition/compound (Botrytis cinerea): +
IC50: % of composition stock solution (Rhizoctonia solani): 0.33 % of composition stock solution
IC50: concentration of copper or zinc in the composition, or phosphorous acid (Rhizoctonia solani): 132 µg/mL
Potassium sorbate synergy with composition/compound (Rhizoctonia solani): +
IC50: % of composition stock solution (Alternaria alternata): 0.62 % of composition stock solution
IC50: concentration of copper or zinc in the composition, or phosphorous acid (Alternaria alternata): 248 µg/mL
IC50: % of composition stock solution (Ustilago maydis): 0.56 % of composition stock solution
IC50: concentration of copper or zinc in the composition, or phosphorous acid (Ustilago maydis): 224 µg/mL
Potassium sorbate synergy with composition/compound (Ustilago maydis): ++
IC50: % of composition stock solution (Aspergillus niger): 0.25 % of composition stock solution
IC50: concentration of copper or zinc in the composition, or phosphorous acid (Aspergillus niger): 100 µg/mL
Potassium sorbate synergy with composition/compound (Aspergillus niger): +
fungal strains (of those tested) showing strong synergy with KS (plant pathogenic fungi): 2 strains
T. rubrum IC50 values: % of stock solution (Trichophyton rubrum): 0.25 % of stock solution
T. rubrum IC50 values: Concentration (Trichophyton rubrum): 100 µg/mL
MIC [1]: 400 µg/mL
MIC [2]: >400 µg/mL
MIC [3]: 400 µg/mL
MIC [4]: >400 µg/mL

Potassium phosphite
IC50 fold higher than the Cu#, Cu—Zn# or Zn# compositions (Magnaporthe oryzae): 13.7 fold
IC50: % of composition stock solution (Magnaporthe oryzae): 3.7 % of composition stock solution
IC50: % of composition stock solution (Fusarium graminearum): 0.78 % of composition stock solution
Potassium sorbate synergy with composition/compound (Fusarium graminearum): ++
IC50: % of composition stock solution (Botrytis cinerea): 0.67 % of composition stock solution
Potassium sorbate synergy with composition/compound (Botrytis cinerea): +
IC50: % of composition stock solution (Rhizoctonia solani): 0.93 % of composition stock solution
Potassium sorbate synergy with composition/compound (Rhizoctonia solani): ++
IC50: % of composition stock solution (Alternaria alternata): 1.1 % of composition stock solution
IC50: % of composition stock solution (Ustilago maydis): 1.3 % of composition stock solution
Potassium sorbate synergy with composition/compound (Ustilago maydis): ++
IC50: % of composition stock solution (Aspergillus niger): 0.19 % of composition stock solution
Potassium sorbate synergy with composition/compound (Aspergillus niger): +
fungal strains (of those tested) showing strong synergy with KS (plant pathogenic fungi): 2 strains
